Reference: patent publication US20060009506A1, “Drugs for the treatment of neoplastic disorders” (Odyssey Thera, Inc., priority 2004, published 2006)

Legend:
cancer pathways = assay: Screening of cancer pathways in human cells (PCA and phospho-immunofluorescence); format: cell-based; conditions: cancer pathway in which the drug was active; screened at 10 micromolar, HEK293 cells
From the text: (§1) We first screened compounds derived from the known pharmacopeia and from a selected natural product collection using two types of assays: (a) measurements of post-translational modifications of proteins; (b) measurements of protein-protein interactions. For the purpose of measuring post-translational modifications of proteins, we used immunofluorescence methods combined with phospho-specific antibodies. For the purpose of quantifying and localizing protein complexes we used fluorescence methods based on protein-fragment complementation assays (PCA). ‘Hits’ from the initial screens were then tested for antiproliferative activity in up to 5 different human tumor cell lines. […] For drugs with antiproliferative activity in PC-3 cells, dose-response curves were generated to determine the EC50 for antiproliferative activity and additional tumor cell lines were tested to determine the breadth of activity. Methods for assay development, validation, screening, and testing of antiproliferative activity are described below.
Immunofluorescence was performed on drug-treated cells using antibodies that specifically recognize phosphorylated forms of key signaling proteins. HEK293T cells were seeded in black-walled, poly-lysine coated 96-well plates (Greiner) at a density of 30,000/well. After 24 hours, cells in duplicate wells were treated with drugs. 100 ng/ml hEGF added to the cells during the last 5 min of drug treatment. The cells were rinsed once with PBS and fixed with 4% formaldehyde for 10 min. The cells were subsequently permeabilized with 0.25% Triton X-100 in PBS and incubated with 3% BSA for 30 min to block non-specific antibody binding. Each of the 4 sets of identically treated cells were then incubated with rabbit antibodies against phosphorylated CREB (Ser133), hsp27 (Ser82), pERK (T202/Y204) (Cell Signaling), or BSA in PBS. The cells were rinsed with PBS and incubated with Alexa488 conjugated goat anti-rabbit secondary antibody (Molecular Probes). Cell nuclei were stained with Hoechst33342 (Molecular Probes). Images were acquired using Discovery-1 High Content Imaging System (Molecular Devices). Background fluorescence due to nonspecific binding by the secondary antibody was established with the use of cells that were incubated with BSA/PBS and without primary antibodies. Fluorescence intensities were quantitated using Image J-based image analysis algorithm as described below.
Reporter fragments for PCA were generated by oligonucleotide synthesis (Blue Heron Biotechnology, Bothell, Wash.). First, oligonucleotides coding for polypeptide fragments YFP[1]and YFP[2] […] Next, PCR mutagenesis was used to generate the mutant fragments IFP[1] and IFP[2]. The IFP[1] fragment corresponds to YFP[1]-(F46L, F64L, M153T) and the IFP[2] fragment corresponds to YFP[2]-(V163A, S175G). […] The YFP[1], YFP[2], IFP[1] and IFP[2] fragments were amplified by PCR to incorporate restriction sites and a linker sequence, described below, in configurations that would allow fusion of a gene of interest to either the 5′- or 3′-end of each reporter fragment. The reporter-linker fragment cassettes were subcloned into a mammalian expression vector (pcDNA3.1Z, Invitrogen) that had been modified to incorporate the replication origin (oriP) of the Epstein Barr virus (EBV). […] Additionally, these vectors still retain the SV40 origin, allowing for episomal expression in cell lines expressing the SV40 large T antigen (e.g. HEK293T, Jurkat or COS). […] PCA fusion constructs were prepared for a large number of proteins known to participate in cellular pathways (Table 1 and Table 2). The full coding sequence for each gene of interest was amplified by PCR from a sequence-verified full-length cDNA.

MIA PaCa-2 cells = assay: MTT proliferation assay, pancreatic carcinoma MIA PaCa-2; format: cell-based; conditions: Homo sapiens, Tumor Cell: Pancreatic (MIA PaCa-2), concentrations tested in microM
From the text: as §1
(§2) Cells were maintained in various media as follows: A549, LoVo and PC-3 (Ham's F12K medium with 2 mM L-glutamine and 1.5 g/L sodium bicarbonate), MIA PaCa-2 (Dulbecco's modified Eagle's medium with 4 mM L-glutamine and 4.5 g/L glucose), U87-MG (MEM+Earle's BSS). Medium for each cell line was supplemented with 10% FBS and […] Penecillin/Streptomycin. All cells were grown in incubators set at 37° C., 5% CO2. Thiazolyl Blue Tetrazolium Bromide (MTT) based proliferation assays were performed to assess the anti-proliferative activities of the compounds on these cells. Cells were seeded in 96 well plates at a density of 750 cells/well 24 hours prior to compound treatment. The cells were incubated with varying concentrations of compounds for 120 hours. […] Drug treatment was performed in 5 replicate wells. Background absorbance was established by wells containing medium but no cells. Vehicle (DMSO) only was used as control. MTT (Sigma-Aldrich, St. Louis, Mo.) was added to each well at a final concentration of 0.5 mg/ml. Following a 2 hour incubation at 37° C., medium in the wells was replaced with 0.15 ml DMSO. The plates were agitated for 15 min using a microtiter plate shaker.

A549 cells = assay: MTT proliferation assay, non-small cell lung carcinoma A549; format: cell-based, Human; conditions: Tumor Cell: NSCLC (A549), concentrations tested in microM
From the text: as §1, §2

cancer cells = assay: Antiproliferative activity against cancer cells (cell line not stated); format: cell-based, human; conditions: general statement
From the text: as §1
Cells were maintained in various media as follows: A549, LoVo and PC-3 (Ham's F12K medium with 2 mM L-glutamine and 1.5 g/L sodium bicarbonate), MIA PaCa-2 (Dulbecco's modified Eagle's medium with 4 mM L-glutamine and 4.5 g/L glucose), U87-MG (MEM+Earle's BSS). Medium for each cell line was supplemented with 10% FBS and […] Penecillin/Streptomycin. All cells were grown in incubators set at 37° C., 5% CO2. Thiazolyl Blue Tetrazolium Bromide (MTT) based proliferation assays were performed to assess the anti-proliferative activities of the compounds on these cells. Cells were seeded in 96 well plates at a density of 750 cells/well 24 hours prior to compound treatment. The cells were incubated with varying concentrations of compounds for 120 hours. Compound concentrations range from 0.03 to 100 microM (half log increments) except for alpha-Tomatine (0.001-100 microM, half log increments), Neriifolin (0.0002-100 microM) and Peruvoside (0.01-100 microM). Drug treatment was performed in 5 replicate wells. Background absorbance was established by wells containing medium but no cells. Vehicle (DMSO) only was used as control. MTT (Sigma-Aldrich, St. Louis, Mo.) was added to each well at a final concentration of 0.5 mg/ml. Following a 2 hour incubation at 37° C., medium in the wells was replaced with 0.15 ml DMSO. The plates were agitated for 15 min using a microtiter plate shaker. […] Mean absorbance values were calculated from 5 replicate wells of each drug treatment following subtraction of background absorbance from blank samples and plotted as a percentage of control.

IC50 (MIA PaCa-2 cells; MIA PaCa-2, 120 h) [µM]	IC50 (A549 cells; Homo sapiens, A549, 120 h) [µM]	IC50 (A549 cells; 120 hours) [µM]	SMILES	Pathway Activity (cancer pathways)	Antiproliferative activity against cancer cells (cancer cells)	IC50 (MIA PaCa-2 cells; 120 hours) [µM]	IC50 (A549 cells; Homo sapiens, 120 hours) [µM]
–	–	–	Fc1ccc(C(c2ccc(F)cc2)N2CCN(C/C=C/c3ccccc3)CC2)cc1 [Flunarizine]	invasion/metastasis	substantial antiproliferative activity	–	–
–	–	–	CCN(CC)CCOc1ccc(C(=C(Cl)c2ccccc2)c2ccccc2)cc1 [Clomiphene]	proliferation	substantial antiproliferative activity	–	–
–	–	–	Cc1c(N(C)CS(=O)(=O)[O-])c(=O)n(-c2ccccc2)n1C.[Na+] [dipyrone]	–	substantial antiproliferative activity	–	–
–	–	–	C[n+]1cc2c3c(ccc2c2ccc4cc5c(cc4c21)OCO5)OCO3 [Sanguinarine]	–	–	1.93	2.23
–	–	–	Cc1c(NC(C)C)c(=O)n(-c2ccccc2)n1C [Ramifenazone]	invasion/metastasis	substantial antiproliferative activity	–	–
1.93	11.9	–	CNCCCN1c2ccccc2CCc2ccccc21 [Desipramine]	proliferation	substantial antiproliferative activity	–	–
–	–	–	CN[C@H]1CC[C@@H](c2ccc(Cl)c(Cl)c2)c2ccccc21 [Sertraline]	apoptosis	substantial antiproliferative activity	–	–
20.4	21.9	–	COC(=O)C1=C(C)NC(C)=C(C(=O)OCCN(C)Cc2ccccc2)C1c1cccc([N+](=O)[O-])c1 (stereo not drawn) [Nicardipine]	–	–	–	–
58.3	56.4	–	COc1c2ccoc2cc2oc(=O)ccc12 [Bergaptene]	proliferation; invasion/	substantial antiproliferative activity	–	–
–	–	–	CCN(CCCCOC(=O)c1ccc(OC)c(OC)c1)C(C)Cc1ccc(OC)cc1 (stereo not drawn) [Mebeverine]	invasion/metastasis	substantial antiproliferative activity	–	–
1.58	4.74	–	CC(C)COCC(CN(Cc1ccccc1)c1ccccc1)N1CCCC1 (stereo not drawn) [Bepridil]	invasion/metastasis	substantial antiproliferative activity	–	–
68.2	18.8	–	C=C1c2c(Cl)ccc(O)c2C(=O)C2=C(O)[C@]3(O)C(=O)C(C(N)=O)=C(O)[C@@H](N(C)C)[C@@H]3[C@@H](O)[C@H]12 [Meclocycline]	–	–	–	–
–	–	–	COC(=O)[C@H]1[C@H]2C[C@@H]3c4[nH]c5cc(OC)ccc5c4CCN3C[C@H]2C[C@@H](OC(=O)c2cc(OC)c(OC)c(OC)c2)[C@@H]1OC [reserpine, Reserpine]	–	substantial antiproliferative activity	–	–
0.18	0.78	–	CCCCCCCCNC(C)C(O)c1ccc(SC(C)C)cc1 (stereo not drawn) [Suloctidil]	invasion/metastasis	substantial antiproliferative activity	–	–
–	–	–	CO[C@H]1[C@H](O)[C@H](O[C@H]2CC[C@@]3(C)[C@H](CC[C@@H]4[C@@H]3CC[C@]3(C)[C@@H](C5=CC(=O)OC5)CC[C@]43O)C2)O[C@@H](C)[C@@H]1O [Neriifolin]	invasion/metastasis	substantial antiproliferative activity	0.003	0.006
–	–	–	C[C@H]1CC[C@]2(NC1)O[C@H]1C[C@H]3[C@@H]4CC[C@H]5C[C@@H](O[C@@H]6O[C@H](CO)[C@H](O[C@@H]7O[C@H](CO)[C@@H](O)[C@H](O[C@@H]8OC[C@@H](O)[C@H](O)[C@H]8O)[C@H]7O[C@@H]7O[C@H](CO)[C@@H](O)[C@H](O)[C@H]7O)[C@H](O)[C@H]6O)CC[C@]5(C)[C@H]4CC[C@]3(C)[C@H]1[C@@H]2C [Tomatine]	invasion/metastasis	substantial antiproliferative activity	0.1	0.06
–	0.18	0.28	COC(=O)Nc1nc2ccc(C(=O)c3ccccc3)cc2[nH]1 [Mebendazole]	invasion/metastasis	substantial antiproliferative activity	–	–
20.7	5.7	–	CN1C[C@H](CNC(=O)OCc2ccccc2)C[C@@H]2c3cccc4c3c(cn4C)C[C@H]21 [Melergoline]	invasion/metastasis	substantial antiproliferative activity	–	–
22.2	53.8	–	CC(CN1c2ccccc2Sc2ccccc21)N(C)C (stereo not drawn) [Promethazine]	proliferation	substantial antiproliferative activity	–	–
1.97	11.9	–	CN(C)CCCN1c2ccccc2Sc2ccccc21 [Promazine]	proliferation	substantial antiproliferative activity	–	–
–	–	–	Cc1c(N(C)C)c(=O)n(-c2ccccc2)n1C [4-dimethylaminoantipyrine]	–	substantial antiproliferative activity	–	–

SMILES	IC50 (MIA PaCa-2 cells; MIA PaCa-2, 120 h) [µM]	IC50 (A549 cells; Homo sapiens, A549, 120 h) [µM]	IC50 (A549 cells; 120 hours) [µM]	Pathway Activity (cancer pathways)	Antiproliferative activity against cancer cells (cancer cells)	IC50 (MIA PaCa-2 cells; 120 hours) [µM]	IC50 (A549 cells; Homo sapiens, 120 hours) [µM]
Oc1ccc(Cl)cc1Cc1cc(Cl)ccc1O [Dichlorophene]	25.8	9.83	–	proliferation	substantial antiproliferative activity	–	–
